Activity calls are given as the source filed them.
Assays:
[1] = test system: HEK293; test: cells; details: Homo sapiens
[2] = test system: HEK293; test: cells; details: Homo sapiens; remark: listed apart in the source
[3] = cytotoxicity in HEK-293T cells, dose response, cytotoxicity control for TCR NF-kB inhibitor project, luminescence, T-cell screen hits (AID 489026); format: functional, cell-based;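 further: cells exposed to compound about 14 hours before the viability readout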
[4] = test system: J774.A1; test: Confirmation of image-based Screening Assay for Inhibitors of Phagocytosis. [Related pubchem assays (depositor defined):AID1029, AID1643]; format: functional, cell-based; details: Mus musculus
[5] = target: G-protein coupled receptor 55 (Homo sapiens, UniProt Q9Y2T6); test: SAR Analysis of Selective Antagonists of GPR55 using an Image-Based Assay - Set 3. [Related pubchem assays (depositor defined):AID2058, AID2079]; format: functional
G-protein coupled receptor 55, sequence (Q9Y2T6 whole entry): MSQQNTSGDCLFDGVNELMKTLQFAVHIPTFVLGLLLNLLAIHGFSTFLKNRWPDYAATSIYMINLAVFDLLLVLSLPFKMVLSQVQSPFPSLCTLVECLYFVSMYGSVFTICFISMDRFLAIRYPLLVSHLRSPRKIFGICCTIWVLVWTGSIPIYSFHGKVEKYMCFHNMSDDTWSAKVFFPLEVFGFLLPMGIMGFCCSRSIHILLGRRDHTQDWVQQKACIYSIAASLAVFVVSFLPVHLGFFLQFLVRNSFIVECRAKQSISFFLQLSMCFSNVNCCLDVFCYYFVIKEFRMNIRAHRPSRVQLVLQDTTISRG

[6] = target: G-protein coupled receptor 35 (Homo sapiens, UniProt Q9HC97); test: SAR analysis of Antagonists of the GPR35 Receptor using an Image-Based Assay - Set 5. [Related pubchem assays (depositor defined):AID2058, AID2079]; format: functional
G-protein coupled receptor 35, sequence (Q9HC97 whole entry): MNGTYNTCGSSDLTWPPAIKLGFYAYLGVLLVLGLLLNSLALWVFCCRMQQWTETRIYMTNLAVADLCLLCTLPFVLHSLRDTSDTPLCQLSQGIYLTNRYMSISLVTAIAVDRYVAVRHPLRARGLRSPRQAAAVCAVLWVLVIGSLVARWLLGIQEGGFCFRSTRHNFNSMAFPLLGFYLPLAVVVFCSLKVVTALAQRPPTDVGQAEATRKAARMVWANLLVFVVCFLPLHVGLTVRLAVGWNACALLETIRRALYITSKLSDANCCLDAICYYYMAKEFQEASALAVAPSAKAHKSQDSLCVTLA

In the case of `Cc1ccc(C(=O)Nc2ncc(Cc3ccc(SC(F)F)cc3)s2)cc1`, the EC50 [1] is reported as > 59.7 µM (inactive), the EC50 [2] is reported as > 59.7 µM (inactive) and the IC50 [3] is reported as > 80 µM (inactive). The IC50 [4] was 1.75 µM (active).
With `COc1ccc(-c2n[nH]cc2/C=N/NC(=S)NC(C)(C)C)cc1` the IC50 [5] was 16.4 µM (inactive) and the IC50 [6] was > 32 µM (inactive).
